For test [1], the system named is E. coli IleRS. The note with it: Hughes and Mellows, Biochem. J. 176:305-318 (1978); cited from earlier work.
The test system of test [2] is E. coli cells with the TB GST-IleRS fusion construct, pGX-56. The class given is cell-based. The note with it: as for pKS-56: 40 μg/ml PMA, LB plus ampicillin.
For test [3], the system named is DH5α cells expressing wild-type IleRS on a plasmid (pKS21). As to the kind of experiment: Pseudomonic acid (PMA) rescue, growth in liquid culture (A600). The format is cell-based, E. coli. The note with it: LB plus ampicillin media containing 40 μg/ml PMA; 30° C., 36-40 hours.
Test [4] has as its system E. coli DH5α cells expressing the M. tuberculosis IleRS gene (on pKS-56). The class given is cell-based.

Data on 1 compound can be found in patent US5756327A, “Recombinant mycobacterial isoleucyl-tRNA synthetase genes, tester strains and assays” (priority 1995, dated 1998).

For the compound `C/C(=C\C(=O)OCCCCCCCCC(=O)O)C[C@@H]1OC[C@H](C[C@@H]2O[C@H]2[C@@H](C)[C@H](C)O)[C@@H](O)[C@H]1O` [PMA, pseudomonic acid A], the “sensitivity of E. coli IleRS to PMA” value in test [1] is “extremely sensitive”. For the same compound, the inhibition of growth result in test [2] is reported as “Identical results”; in test [3] it was “completely inhibited”; in test [4] (LB plus ampicillin media containing 40 μg/ml PMA, 30° C., 36-40 hours), “no inhibition of growth”. For the same compound, the “growth at highest concentration tested” value in test [4] (LB plus ampicillin with 640 μg/ml PMA (higher concentrations were not tested)) was “continued to grow”.
